Laboratory results reported in US8980571B2, “Method of identifying a candidate compound which may inhibit α9-nAchR overexpression or estrogen receptor-dependent transcription in nicotine-derived-compound-induced breast cancer cells” (Taipei Medical University, priority 2011, dated 2015).

How the values were obtained:
ERK1/2 = test: kinase competition assay, p-ERK1/2 immunoblotting in MCF-7 cells; type: cell-based, human; details: 25 μM pretreatment 30 min, then E2 10 nM 30 min
Method: After treatment, the cells were harvested for immunoblotting analysis. The p-ERα, total ER-α, and MAPK kinase proteins levels were detected by immunoblotting analysis.
For the kinase competition assays, the cells were treated with either 10 μM Ly294002, 25 μM PD98059, or 25 μM SP600125 (all from Tocris Cookson Inc., Ellisville, USA) before the treatment with nicotine or E2. All of the cell lines were grown in phenol red-free DMEM for 7 days before the experiments (Lewis, J. S., Thomas, T. J., Pestell, R. G., Albanese, C., Gallo, M. A., and Thomas, T. 2005. Differential effects of 16alpha-hydroxyestrone and 2-methoxyestradiol on cyclin D1 involving the transcription factor ATF-2 in MCF-7 breast cancer cells. J Mol Endocrinol 34:91-105). The DMEM medium used for these experiments contained 10% FBS that had been pretreated with dextran-coated charcoal (0.5% Norit A and 0.05% Dextran T-70) to avoid the effects of serum-derived estrogenic compounds.
Cell extracts were prepared as previously in Ho, Y. S., Lai, C. S., Liu, H. I., Ho, S. Y., Tai, C., Pan, M. H., and Wang, Y. J. 2007. Dihydrolipoic acid inhibits skin tumor promotion through anti-inflammation and anti-oxidation. Biochem Pharmacol 73:1786-1795. Fifty micrograms of protein from each sample were resolved by 12% SDS-polyacrylamide gel electrophoresis, transferred to PVDF and analyzed by western blotting. […]

p-Akt (Ser473) = test: p-Akt immunoblotting analysis in MCF-7 cells; type: cell-based, human
Excerpt: Both p-AKT and total (T)-AKT protein expression were detected by immunoblotting analysis. The membrane was then re-probed with a GAPDH antibody to ensure equal protein loading.
Both p-AKT and T-AKT protein expression were detected by immunoblotting analysis. The membrane was then re-probed with a GAPDH antibody to ensure equal protein loading.
Fifty micrograms of protein from each sample were resolved by 12% SDS-polyacrylamide gel electrophoresis, transferred to PVDF and analyzed by western blotting. The antibodies employed for the western blotting analysis were purchased from the following vendors: anti-Akt, anti-JNK, anti-phospho JNK, anti-estrogen receptor a (anti-ERα), anti-c-Fos, anti-ERK1/2, anti-phospho ERK1/2, and protein A/G agarose beads were purchased from Santa Cruz Biotechnology (Santa Cruz, Calif., USA); anti-GAPDH, anti-α9-nAChR, and anti-phospho ERα (Ser^167) antibodies were obtained from ABcam (Cambridge, UK); anti-phospho Akt (Ser^473, Thr^308), anti-phospho c-Jun (Ser^73), anti-phospho ERα (Ser^118), and anti-phospho ERα (Ser^104/106) antibodies were purchased from Cell Signaling Technology (Danvers, Mass.). Immunodetection was performed by probing membranes with the appropriate dilutions of specific primary antibodies at room temperature for 2 h. The membranes were then incubated at room temperature for 1 h with either alkaline phosphatase-coupled anti-mouse or anti-rabbit secondary antibodies that were purchased from Santa Cruz Biotechnology. The specific protein complexes were identified by incubating the membranes with colorigenic substrates (nitroblue tetrazolium and 5-bromo-4-chloro-3indolyl-phosphate; KPL, Inc., Gaithersburg, Md., USA). In each experiment, the membranes were also probed with an anti-GAPDH antibody as a protein loading control.

α9-nAChR = α9-nAChR mRNA and protein expression by RT-PCR and immunoblotting in MCF-7 cells; type: cell-based, human; details: nicotine 10 μM, 6 h post-treatment
Method: After treatment, the cells were harvested, and α9-nAChR mRNA and protein expression levels were determined by RT-PCR and immunoblotting analyses.
Primers specific for the α9-nAChR subunit (forward: 5′-[sequence]-3 (SEQ ID NO:18)′ and reverse: 5′-[sequence]-3 (SEQ ID NO:19)′) were synthesized by MB Mission BioTech (Taipei, Taiwan). The PCR amplicons were analyzed in 1.2% agarose gels (Amresco, Inc, Solon, Ohio, USA) that were stained with ethidium bromide. […] The α9-nAChR mRNA fluorescence intensity was measured and normalized to GUS expression levels using the built-in Roche LightCycler software (version 4).

α9-nAChR promoter = test: luciferase activity assay, pGL3(α9-nAChR) promoter constructs in MCF-7 cells; type: cell-based, human
Method: (§1) Cell lysates were harvested, and relative firefly luciferase activities were measured and normalized to renilla luciferase activities in the same cell lysates. […] The luciferase activity was assayed and normalized to the pRL-TK expression as described above. […] The data were analyzed using nonparametric tests; all P-values are two-sided.
All of the α9-nAChR promoter-luciferase gene fusions were constructed using a pGL3-Basic vector (Promega), and suitable α9 promoter fragments were introduced into the polylinker region of the vector, upstream of the luciferase gene. These constructs were defined as pGL3(α9-nAChR). The fragments were generated using restriction enzymes and were either cloned directly into a pGL3-Basic vector or first subcloned in a pBluescript vector and then transferred into a pGL3-Basic vector.
MCF-7 cells were plated in six-well plates and incubated overnight. The following day, the cells were transiently cotransfected with 2 μg of pGL3 (α9-nAChR) promoter plasmid and 500 ng of RLTK plasmid (Promega, Madison, Wis.) using a MP-100 microporator (Digital Bio, Seoul, Korea) according to the manufacturer's instructions. […] Twenty-four hours later, the cells were lysed with 19 Reporter Lysis Buffer (Promega, Madison, Wis.) and stored at −20° C. overnight. Luciferase activity was then determined by mixing 50 µl of the cell lysate and 50 μl of the Luciferase Assay Reagent (Promega). The total luciferase light units were quantified using a HIDEX Chameleon Microplate Reader. The relative luciferase activity was normalized to that of renilla luciferase in the same cell lysates. Each luciferase assay experiment was performed three times. In this study, the luciferase activity observed in cells transfected with the empty vector was defined as a one-fold change (i.e., basal level).
To more precisely define the regulatory elements that are required by the α9-nAChR promoter for ER-induced transcriptional activation, transient-transfection experiments were conducted using a series of 5′ promoter deletion constructs in pGL3 vectors that were transfected into MCF-7 cells. […]

AP1 DNA-binding sites = details: nicotine 0.1-10 μM, 6 h, pGL3(AP1)5, MCF-7
Method: as §1
MCF-7 cells were plated in six-well plates and incubated overnight. The following day, the cells were transiently cotransfected with 2 μg of pGL3 (α9-nAChR) promoter plasmid and 500 ng of RLTK plasmid (Promega, Madison, Wis.) using a MP-100 microporator (Digital Bio, Seoul, Korea) according to the manufacturer's instructions. […] Twenty-four hours later, the cells were lysed with 19 Reporter Lysis Buffer (Promega, Madison, Wis.) and stored at −20° C. overnight. Luciferase activity was then determined by mixing 50 µl of the cell lysate and 50 μl of the Luciferase Assay Reagent (Promega). The total luciferase light units were quantified using a HIDEX Chameleon Microplate Reader. The relative luciferase activity was normalized to that of renilla luciferase in the same cell lysates. Each luciferase assay experiment was performed three times. In this study, the luciferase activity observed in cells transfected with the empty vector was defined as a one-fold change (i.e., basal level). […]

[1] = cited from earlier work

Row | Structure (SMILES) | effect on E2-induced increase in p-ERK1/2 protein levels (ERK1/2) | effect of combined treatment on E2-induced Akt (Ser473) phosphorylation (p-Akt (Ser473); nicotine 5 μM + E2 5 nM, 15 min, MCF-7) | time to significantly increased p-Akt (Ser473) expression (p-Akt (Ser473); nicotine 10 μM, MCF-7) [min] | p-Akt (Ser473) expression for the duration of the experiment (p-Akt (Ser473); nicotine 10 μM, MCF-7, time course) | minimum concentration required for p-Akt (Ser473) induction (p-Akt (Ser473); within 15 min, MCF-7) [µM] | α9-nAChR mRNA and protein expression levels (α9-nAChR) | induced responsiveness of promoter with positions -995 to -260 deleted (α9-nAChR promoter; E2 10 nM or nicotine 10 μM) | nicotine-induced luciferase activity with promoter positions -41 to -1 deleted (α9-nAChR promoter; nicotine 10 μM) | induction of α9-nAChR promoter activity (luciferase), full-length construct (α9-nAChR promoter; nicotine 10 μM, 24 h, empty vector = one-fold) | AP1-linked luciferase activity (AP1 DNA-binding sites) | nicotine absorbed systemically while smoking a cigarette ([1]; in vivo) | nicotine concentration in the gastric juice ([1]; in vivo) [ng/mL] | nicotine concentration in the plasma ([1]; in vivo) | nicotine concentration in the saliva ([1]; in vivo) [ng/mL] | share of inhaled nicotine absorbed by the body ([1]; studies using 14C-nicotine)
1 | COc1cccc(-c2cc(=O)c3ccccc3o2)c1N [PD98059] | almost completely abolished |  |  |  |  |  |  |  |  |  |  |  |  |  | 
2 | CN1CCCC1c1cccnc1 (stereo not drawn) [nicotine] |  | enhanced | ≤ 10 | persistent increase | 5 | significantly induced | preserved | abolished | greater than fourfold | increased the AP1-linked luciferase activity in a dose-dependent manner | roughly 1.0 mg | > 800 | approximately 15 ng/ml | > 1300 | 80-90%
